In assay [1] the target is T1, human erythrocyte acetylcholinesterase (AChE, EC 3.1.1.7) (Homo sapiens, UniProt P22303).
T1 construct: human erythrocyte acetylcholinesterase (AChE, EC 3.1.1.7); purchased Sigma-Aldrich (Saint Louis, MO, USA); host or cells: human erythrocytes
Briefly: Inhibition of human erythrocyte acetylcholinesterase (Ellman assay). It counts as biochemical. The settings on record: read-out: Inhibition % at 20 µM, Human AChE. The essentials:
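Colorimetric Ellman read-out with acetylthiocholine iodide substrate and DTNB, under standard reversible-inhibitor conditions, 2% (v/v) final DMSO. Enzyme-free blanks corrected for non-enzymatic hydrolysis; triplicate runs, IC50 from regression plots.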
For orientation: Ellman's reagent forms a yellow product with free thiols.

Assay [2] has as its target T2, equine serum butyrylcholinesterase (BChE, EC 3.1.1.8) (Equus caballus, UniProt P81908).
T2 construct: equine serum butyrylcholinesterase (BChE, EC 3.1.1.8); purchased Sigma-Aldrich (Saint Louis, MO, USA); host or cells: equine serum
Briefly: Inhibition of equine serum butyrylcholinesterase (Ellman assay). It counts as biochemical. The following applies: read-out: Inhibition % at 20 µM, Equine BChE. Summed up: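 Ellman colorimetric assay with 0.02 unit/mL BChE, 1 mM butyrylthiocholine iodide and 0.33 mM DTNB, 2% (v/v) DMSO final; substrate added after enzyme-compound mixing. Residual activity versus inhibitor-free control, blanks without enzyme; triplicates, IC50 by linear regression.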

Assay [3] has as its system Epidermophyton floccosum RCPF F 1659/17. Briefly: Antifungal susceptibility testing, E. floccosum. The settings on record: for MIC: Epidermophyton floccosum, RCPFF1659/17, read-out: MIC for fungi strains inhibition, E. floccosum.
Description: (§2) The solvent was DMSO. […] In each test, a growth control and a sterility control were used.
Assay [4] deals with Trichophyton rubrum RCPF F 1408. In words: Antifungal susceptibility testing, T. rubrum. The settings on record: for MIC: Trichophyton rubrum, RCPFF1408, read-out: MIC for fungi strains inhibition, T. rubrum.
Description: as §2
Assay [5] deals with porcine liver carboxylesterase (CES, EC 3.1.1.1) (Sus scrofa, UniProt Q29550). Briefly: Inhibition of porcine liver carboxylesterase (4-NPA colorimetric assay). The following applies: 20 µM; n.a. = inactive at 20 µM; mean ± SEM, n = 3. The format is biochemical. The source says: The following enzymes were purchased from Sigma-Aldrich (Saint Louis, MO, USA): porcine liver carboxylesterase (CES, EC 3.1.1.1), human erythrocyte acetylcholinesterase (AChE, EC 3.1.1.7) and equine serum butyrylcholinesterase (BChE, EC 3.1.1.8). Substrates for CES, AChE and BChE were 4-nitrophenyl acetate (4-NPA), acetylthiocholine iodide (ATCh) and butyrylthiocholine iodide (BTCh), respectively, and the colorimetric reagent for the AChE and BChE assays was 5,5’-dithio-bis-(2-nitrobenzoic acid) (DTNB) (Sigma-Aldrich). All the kinetic experiments were performed under standard conditions, according to the protocol of IPAC RAS for a reversible inhibitors study.
porcine liver carboxylesterase (CES, EC 3.1.1.1), sequence (Q29550 19-566): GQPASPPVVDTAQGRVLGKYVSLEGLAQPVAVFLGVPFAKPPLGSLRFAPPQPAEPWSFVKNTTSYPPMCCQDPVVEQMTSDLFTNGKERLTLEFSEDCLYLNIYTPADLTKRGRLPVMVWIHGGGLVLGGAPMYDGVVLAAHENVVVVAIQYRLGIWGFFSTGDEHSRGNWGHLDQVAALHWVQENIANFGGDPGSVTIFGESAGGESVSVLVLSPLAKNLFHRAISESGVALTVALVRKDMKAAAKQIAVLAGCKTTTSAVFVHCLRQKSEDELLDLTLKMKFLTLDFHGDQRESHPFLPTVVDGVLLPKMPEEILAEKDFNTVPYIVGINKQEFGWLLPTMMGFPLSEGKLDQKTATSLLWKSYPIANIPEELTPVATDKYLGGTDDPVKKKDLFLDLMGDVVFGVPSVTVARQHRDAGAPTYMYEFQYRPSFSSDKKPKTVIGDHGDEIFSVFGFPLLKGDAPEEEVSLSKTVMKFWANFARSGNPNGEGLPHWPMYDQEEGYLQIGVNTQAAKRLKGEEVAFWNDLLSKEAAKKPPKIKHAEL
The CES (porcine liver) activity was assessed colorimetrically in 0.1 M K/Na phosphate buffer pH 8.0, 25 °C, by measuring the absorbance of 4-nitrophenol at 405 nm. Final enzyme and substrate (4-NPA) concentrations were 0.02 unit/mL and 1 mM, respectively. Reagent blanks included all constituents except enzyme.
Test compounds were dissolved in DMSO. Reaction mixtures contained a final DMSO concentration of 2% (v/v). Enzyme inhibition was first assessed at a single concentration of 20 µM for each compound after a 5 min incubation at 25 °C in three separate experiments. […] Substrate was then added and residual enzyme activity relative to an inhibitor-free control was measured using a Bio-Rad Benchmark Plus microplate reader (Marnes-la-Coquette, France).
Measurements were performed in a Bio-Rad Benchmark Plus microplate reader. Each experiment was performed in triplicate. Plots, linear regressions and values of IC50, were determined using Origin 6.1 for Windows, OriginLab (Northampton, MA, USA). Results were calculated using GraphPad Prism version 6.05 for Windows, GraphPad Software (La Jolla, CA, USA) and presented as mean ± SEM.

Another assay concerns human dermal fibroblasts. Briefly: Cytotoxicity against human dermal fibroblasts (MTT assay). It counts as cell-based. The following applies: Fibroblast, 72 h, MTT, n.a. = inactive, read-out: IC50, Human Dermal Fibroblasts. As to the method:
(§1) Cytotoxicity of compounds was evaluated using a culture of human dermal fibroblasts, which were isolated in the Laboratory of Cell Cultures of the Institute of Medical Cell Technologies, Ekaterinburg, Russia and a HeLa tumor cell line obtained at the shared research facility «Vertebrate cell culture collection» of the Institute of Cytology of the Russian Academy of Sciences, St. Petersburg, Russia. Cells were seeded in 96-well plates in the inoculum dose of 2 × 10^5 cells/mL and cultured for 24 h in DMEM, with 1% glutamine in the presence of 10% fetal bovine serum and gentamicin (50 mg/L) at 37 °C, with humidified atmosphere of 5% CO2. Then compounds, which were dissolved in DMSO, were added to the wells at the final concentrations of 10^–7, 10^–6, 10^–5 and 10^–4 M. The cells were incubated with compounds for 72 h, after which cell viability was assessed using the standard MTT assay. The assay was carried out in four replicates with negative (culture medium), positive (solution of the cytotoxic drug camptothecin at a concentration of 3 mM) controls and the solvent control (DMSO). The results of the MTT assay were evaluated on a Tecan Infinite M200 PRO (Tecan Austria GmbH, Grödig, Austria) plate spectrophotometer by comparing the optical density of a formazan solution at 570 nm in the assay and control wells. The half maximal inhibitory concentrations (IC50) were calculated by AAT Bioquest-calculator (https://www.aatbio.com/tools/ic50-calculator (accessed on 14 November 2022)).
(Formazan colour is commonly taken as a measure of viable cells.)

The subject of another assay is HeLa tumor cell line. Briefly: Cytotoxicity against HeLa cells (MTT assay). It counts as cell-based, human. The settings on record: for IC50: Homo sapiens, HeLa, 72 h, MTT, n.a. = inactive, read-out: IC50, HeLa; for Selectivity Index (SI): ratio of average IC50 in normal fibroblasts to average IC50 for HeLa. As to the method:
as §1

Assay [6] has as its system Microsporum canis RCPF F 1643/1585. Briefly: Antifungal susceptibility testing, M. canis. The settings on record: for MIC: Microsporum canis, RCPFF1643/1585, read-out: MIC for fungi strains inhibition, M. canis.
Description: as §2
Assay [7] concerns Candida albicans RCPF Y 401/NCTC 885/653. In words: Antifungal susceptibility testing, C. albicans. The settings on record: NCTC885, read-out: MIC for fungi strains inhibition, C. albicans.
Description: as §2

SMILES strings stand for the structures. In brackets after ≈: the same amount, converted by molar mass.

T2 sequence (P81908 whole entry): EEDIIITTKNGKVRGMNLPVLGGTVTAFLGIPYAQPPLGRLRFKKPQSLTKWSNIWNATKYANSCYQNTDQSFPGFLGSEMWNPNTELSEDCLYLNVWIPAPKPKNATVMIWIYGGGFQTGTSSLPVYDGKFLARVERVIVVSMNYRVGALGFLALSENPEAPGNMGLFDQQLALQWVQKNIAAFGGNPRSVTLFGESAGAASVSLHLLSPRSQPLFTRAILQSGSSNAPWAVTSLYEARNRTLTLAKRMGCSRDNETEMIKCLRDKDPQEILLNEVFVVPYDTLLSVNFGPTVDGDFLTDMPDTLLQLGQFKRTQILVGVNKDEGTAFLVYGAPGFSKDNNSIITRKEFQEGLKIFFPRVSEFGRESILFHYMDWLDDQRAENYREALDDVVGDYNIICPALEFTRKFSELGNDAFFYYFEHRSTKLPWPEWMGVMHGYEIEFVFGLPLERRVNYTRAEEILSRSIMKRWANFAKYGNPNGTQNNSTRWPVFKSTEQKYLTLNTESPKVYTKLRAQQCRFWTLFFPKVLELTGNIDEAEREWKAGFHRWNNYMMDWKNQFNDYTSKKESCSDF
T1 sequence (P22303 32-617 isoform P22303-2 limits assumed): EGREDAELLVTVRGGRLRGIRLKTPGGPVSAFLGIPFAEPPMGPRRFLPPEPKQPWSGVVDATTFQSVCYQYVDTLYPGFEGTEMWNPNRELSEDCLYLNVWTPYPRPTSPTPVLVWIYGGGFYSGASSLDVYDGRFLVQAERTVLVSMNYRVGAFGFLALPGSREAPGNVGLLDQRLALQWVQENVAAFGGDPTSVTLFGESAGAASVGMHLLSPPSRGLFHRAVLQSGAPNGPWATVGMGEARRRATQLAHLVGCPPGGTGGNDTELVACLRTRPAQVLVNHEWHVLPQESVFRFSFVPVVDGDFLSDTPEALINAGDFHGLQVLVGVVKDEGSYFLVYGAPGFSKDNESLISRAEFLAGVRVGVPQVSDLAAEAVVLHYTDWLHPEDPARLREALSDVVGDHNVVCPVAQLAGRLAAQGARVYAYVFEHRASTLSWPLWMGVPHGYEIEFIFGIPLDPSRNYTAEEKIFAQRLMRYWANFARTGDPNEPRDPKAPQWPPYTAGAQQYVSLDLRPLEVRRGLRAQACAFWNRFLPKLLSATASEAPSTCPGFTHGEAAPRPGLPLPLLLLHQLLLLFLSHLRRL

`O=C1NN=C(C(F)(F)F)/C1=N/Nc1ccccc1` [5a, (Z)-4-(2-Phenylhydrazinylidene)-5-(trifluoromethyl)-2,4-dihydro-3H-pyrazol-3-one]: the inhibition at 20 µM is 12.8 ± 2.3% in [1] and 10.7 ± 1.8% in assay [2].

As to `Cc1ccc(N/N=C2\C(=O)NN=C2C(F)(F)F)cc1` [5b, (4Z)-4-[2-(4-Methylphenyl)hydrazinylidene]-5-(trifluoromethyl)-2,4-dihydro-3H-pyrazol-3-one], the MIC in assay [3] is more than 200 µg/mL; in assay [4] it was 50 µg/mL (≈ 185 µM); in assay [6], 100 µg/mL (≈ 370 µM); in assay [7], 200 µg/mL (≈ 740 µM). In addition, in assay [5], the inhibition at 20 µM worked out at 10.1 ± 1.7%. The 50% inhibitory concentration (IC50) worked out at 8.18 ± 0.73 µM in the assay with human dermal fibroblasts and 2.26 ± 0.14 µM in the assay on HeLa tumor cell line. In addition, the “Selectivity Index (SI)” value in the assay on HeLa tumor cell line is 3.62.

For `O=C1NN=C(C(F)(F)F)/C1=N/Nc1ccc(Br)cc1` [5c, (4Z)-4-[2-(4-Bromophenyl)hydrazinylidene]-5-(trifluoromethyl)-2,4-dihydro-3H-pyrazol-3-one], the “MIC for fungi strains inhibition, E. floccosum” value in [3] came to 12.5 µg/mL. Besides, the minimum inhibitory concentration (MIC) in assay [3] was 12.5 µg/mL (≈ 37.3 µM); in [4] it was 12.5 µg/mL (≈ 37.3 µM); in [6], 25 µg/mL (≈ 74.6 µM); in [7] it was more than 200 µg/mL. Further, in assay [4], the “MIC for fungi strains inhibition, T. rubrum” value came out at 12.5 µg/mL. Further, the inhibition at 20 µM in [1] worked out at 3.4 ± 0.6%; in assay [2], 5.9 ± 1%; in assay [5], 5.5 ± 0.9%. Further, the “MIC for fungi strains inhibition, M. canis” value in assay [6] stood at 25 µg/mL.

Consider `Cc1ccc(N/N=C2\C(=O)N(C)N=C2C(F)(F)F)cc1` [5d, (4Z)-2-Methyl-4-[2-(4-methylphenyl)hydrazinylidene]-5-(trifluoromethyl)-2,4-dihydro-3H-pyrazol-3-one], for which the MIC in assay [3] was 200 µg/mL (≈ 704 µM); in assay [4], 200 µg/mL (≈ 704 µM); in [6], 200 µg/mL (≈ 704 µM); in assay [7], more than 200 µg/mL. Besides, the inhibition at 20 µM in [1] came to 4.5 ± 1.1%.

For the molecule `Cc1ccc(N/N=C2\C(=O)N(c3ccccc3)N=C2C(F)(F)F)cc1` [5f, (4Z)-4-[2-(4-Methylphenyl)hydrazinylidene]-2-phenyl-5-(trifluoromethyl)-2,4-dihydro-3H-pyrazol-3-one], the MIC is 200 µg/mL (≈ 578 µM) in assay [3], more than 200 µg/mL in assay [4], 200 µg/mL (≈ 578 µM) in assay [6] and 200 µg/mL (≈ 578 µM) in assay [7]. Besides, the 50% inhibitory concentration (IC50) amounted to 20.5 ± 2.52 µM with human dermal fibroblasts and 4.49 ± 0.18 µM with HeLa tumor cell line. Besides, the “Selectivity Index (SI)” value in the assay on HeLa tumor cell line was determined as 4.56.

Turning to `CS(=O)(=O)c1ccc(N/N=C2\C(=O)N(c3ccccc3)N=C2C(F)(F)F)cc1` [5m, (4Z)-4-(2-[4-(Methylsulfonyl)phenyl]hydrazinylidene)-2-phenyl-5-(trifluoromethyl)-2,4-dihydro-3H-pyrazol-3-one], the minimal inhibitory concentration (MIC) is more than 200 µg/mL in assay [3], 100 µg/mL (≈ 244 µM) in assay [4], more than 200 µg/mL in assay [6] and more than 200 µg/mL in assay [7]. The inhibition at 20 µM came out at 5.5 ± 0.5% in assay [1], 4 ± 1% in assay [2] and 20.4 ± 1.6% in [5].

As for `Cc1ccc(N/N=C2\C(=O)N(c3ccc(S(N)(=O)=O)cc3)N=C2C(F)(F)F)cc1` [5p, (4Z)-2-[4-(Aminosulfonyl)phenyl]-4-[2-(4-methylphenyl)hydrazinylidene]-5-(trifluoromethyl)-2,4-dihydro-3H-pyrazol-3-one], the minimal inhibitory concentration (MIC) in [3], in assay [4], in [6] and in assay [7] was more than 200 µg/mL throughout. Further, the values for the inhibition at 20 µM in [2] and in assay [5] were 3.6 ± 0.9% and 5.7 ± 1%, respectively.

As for `Cc1ccc(N/N=C2\C(=O)NN=C2C(F)(F)C(F)(F)F)cc1` [6a, (4Z)-4-[2-(4-Methylphenyl)hydrazinylidene]-5-(pentafluoroethyl)-2,4-dihydro-3H-pyrazol-3-one], the inhibition at 20 µM amounted to 3.3 ± 0.9% in assay [2] and 7.8 ± 1.4% in assay [5]. In addition, the IC50 in the assay on human dermal fibroblasts turned out to be 13 ± 2.56 µM; with HeLa tumor cell line, 1.47 ± 0.13 µM. Also, the “Selectivity Index (SI)” value in the assay on HeLa tumor cell line came to 8.83.

In the case of `Cc1ccc(N/N=C2\C(=O)N(c3ccccc3)N=C2C(F)(F)C(F)(F)F)cc1` [6b, (4Z)-4-[2-(4-Methylphenyl)hydrazinylidene]-5-(pentafluoroethyl)-2-phenyl-2,4-dihydro-3H-pyrazol-3-one], the inhibition at 20 µM in assay [1] is 8.3 ± 1.4%; in [2], 5.7 ± 1.3%. Also, the results for the IC50 in the assay with human dermal fibroblasts and in the assay on HeLa tumor cell line were 98.6 ± 6.32 µM and 65.9 ± 5.22 µM, respectively. In the assay on HeLa tumor cell line, the “Selectivity Index (SI)” value came to 1.49.

As for `Cc1ccc(N/N=C2\C(=O)NN=C2C(F)(F)C(F)(F)C(F)(F)F)cc1` [7a, (4Z)-5-(Heptafluoropropyl)-4-[2-(4-methylphenyl)hydrazinylidene]-2,4-dihydro-3H-pyrazol-3-one], the minimum inhibitory concentration (MIC) was 200 µg/mL (≈ 540 µM) in [3], more than 200 µg/mL in [4], more than 200 µg/mL in assay [6] and more than 200 µg/mL in [7]. Also, the values for the inhibition at 20 µM in assay [1], in [2] and in [5] were 35.6 ± 0.8%, 10.5 ± 1.1% and 9.9 ± 0.7%, respectively.

As to `Cc1ccc(N/N=C2\C(=O)N(c3ccccc3)N=C2C(F)(F)C(F)(F)C(F)(F)F)cc1` [7b, (4Z)-5-(Heptafluoropropyl)-4-[2-(4-methylphenyl)hydrazinylidene]-2-phenyl-2,4-dihydro-3H-pyrazol-3-one], the inhibition at 20 µM in assay [1] was found to be 12.6 ± 1.8%; in assay [2], 4.5 ± 1.2%. Also, the IC50 in the assay on human dermal fibroblasts is 73.8 ± 5.32 µM; in the assay with HeLa tumor cell line, 59.7 ± 6.34 µM. Also, in the assay on HeLa tumor cell line, the “Selectivity Index (SI)” value turned out to be 1.24.

With `CC1=NNC(=O)/C1=N\Nc1ccc(C)cc1` [9a, (4Z)-5-Methyl-4-[2-(4-methylphenyl)hydrazinylidene]-2,4-dihydro-3H-pyrazol-3-one], the inhibition at 20 µM in [2] was 4.3 ± 1%. Besides, the IC50 with human dermal fibroblasts was 24.3 ± 1.82 µM. Moreover, in the assay on HeLa tumor cell line, the half-maximal inhibitory concentration (IC50) amounted to 3.16 ± 0.25 µM and the “Selectivity Index (SI)” value is reported as 7.68.

Consider `CC1=NN(c2ccccc2)C(=O)/C1=N\Nc1ccc(C)cc1` [9b, (4Z)-5-Methyl-4-[2-(4-methylphenyl)hydrazinylidene]-2-phenyl-2,4-dihydro-3H-pyrazol-3-one], for which the minimum inhibitory concentration (MIC) in [3], in [4], in assay [6] and in [7] was more than 200 µg/mL throughout. For the same molecule, the inhibition at 20 µM in assay [5] turned out to be 10.3 ± 2.4%. The IC50 in the assay on human dermal fibroblasts is 24.1 ± 3.21 µM; in the assay with HeLa tumor cell line, 46.5 ± 1.98 µM. In the assay on HeLa tumor cell line, the “Selectivity Index (SI)” value worked out at 0.52.

As a reminder, the inhibition is the change of the read-out against control, counted positive when it falls. In general, MIC refers to the lowest concentration that inhibits growth of the organism. As a reminder, the IC50 is the point on the concentration scale where inhibition reaches its midpoint.

The record behind these values is article PMC9821843, “Powerful Potential of Polyfluoroalkyl-Containing 4-Arylhydrazinylidenepyrazol-3-ones for Pharmaceuticals” (Molecules, 2022).
